Measured values from patent publication US9663523B2, “BET protein-inhibiting 5-aryltriazoleazepines” (BAYER PHARMA AKTIENGESELLSCHAFT, priority 2012, dated 2017).

Tests used:
[1] = biological target: BRD4(1) (amino acids 44-168) (Homo sapiens (Human), UniProt O60885); test: BRD4 binding strength, TR-FRET (HTRF) assay of BRD4(1) / acetylated histone H4 peptide interaction; details: inhibition of BRD4(1)/Ac-H4 peptide interaction
Excerpt: To assess the BRD4 binding strength of the compounds according to the invention, the ability thereof to inhibit the interaction between BRD4 and acetylated histone H4 in a dose-dependent manner was quantified. For this purpose, a time-resolved fluorescence resonance energy transfer (TR-FRET) assay was used, which measures the binding between N-terminally His6-tagged BRD4(1) (amino acids 44-168) and a synthetic acetylated histone H4 (Ac-H4) peptide with sequence […]-biotin. The recombinant BRD4 protein produced in-house according to Filippakopoulos et al., Cell, 2012, 149:214-231 was expressed in E. coli and purified by means of (Ni-NTA) affinity and (Sephadex G-75) size exclusion chromatography. The Ac-H4 peptide can be purchased, for example, from Biosyntan (Berlin, Germany). […] For this purpose, 100-fold concentrated solutions in DMSO were prepared by serial dilutions (1:3.4) of a 2 mM stock solution into a clear, 384-well microtitre plate (Greiner Bio-One, Frickenhausen, Germany). From this, 50 nl were transferred into a black test plate (Greiner Bio-One, Frickenhausen, Germany). […] This was followed by a 10-minute incubation step at 22° C. for the pre-equilibration of putative complexes between BRD4 and the substances. Subsequently, 3 μl of a solution of 1.67 times the concentration (in assay buffer) consisting of Ac-H4 peptide (83.5 nM) and TR-FRET detection reagents [16.7 nM anti-6His-XL665 and 3.34 nM streptavidin cryptate (both from Cisbio Bioassays, Codolet, France), and 668 mM potassium fluoride (KF)] were added. The mixture was then incubated in the dark at 22° C. for one hour and then at 4° C. overnight. The formation of BRD4/Ac-H4 complexes was determined by the measurement of the resonance energy transfer from the streptavidin-Eu cryptate to the anti-6His-XL665 antibody present in the reaction. […] The ratio of the emissions at 665 nm and at 622 nm was taken as an indicator of the amount of BRD4/Ac-H4 complexes formed.

[2] = tested on: MOLM-13 cells; test: Cell proliferation (alamarBlue), MOLM-13; type: cell-based; details: Homo sapiens, acute myeloid leukaemia cell line, 96 hours incubation
Description: (§1) The ability of the compounds according to the invention to inhibit the proliferation of various cell lines was determined.
(§2) Cell viability was determined by means of the alamarBlue® reagent (Invitrogen). The cells were sown at different densities (MOLM-13, LAPC-4, MOLP-8 and MDA-MB-231: 4000 cells/well; B16F10: 400 cells/well) in 100 μl of growth medium on 96-well microtitre plates. After overnight incubation at 37° C., the fluorescence values (CI values) were determined. The plates were then treated with various substance dilutions and incubated at 37° C. for 96 hours (MOLM-13, MDA-MB-231 and B16F10 cells), 120 hours (MOLP-8 cells) or 168 hours (LAPC-4 cells). Subsequently, the fluorescence values were determined (CO values). For the data analysis, the CI values were subtracted from the CO values and the results were compared between cells which had been treated with various dilutions of the substance or only with buffer solution.
(§3) The compounds according to the invention were tested in the cell lines in Table 2, which represent the indications specified by way of example:
(§4) The indications corresponding to the different cell lines can be found in Table 2.

[3] = tested on: LAPC-4 cells; test: Cell proliferation (alamarBlue), LAPC-4; type: cell-based; details: Homo sapiens, LAPC4; prostate carcinoma (androgen receptor-positive) cell line, 168 hours incubation
Description: as §1
as §2, with “values).” for “values). For the data analysis, the CI values were subtracted from the CO values and the results were compared between cells which had been treated with various dilutions of the substance or only with buffer solution.”
as §3, §4

[4] = tested on: B16F10 cells; test: Cell proliferation (alamarBlue), B16F10; type: cell-based; details: Mus musculus, B16-F10; melanoma cell line, 96 hours incubation
Description: as §1, §2, §3, §4

[5] = tested on: MDA-MB-231 cells; test: Cell proliferation (alamarBlue), MDA-MB-231; type: cell-based; details: Homo sapiens, mammary carcinoma cell line, 96 hours incubation
Description: as §1, §2, §3, §4

[6] = tested on: MOLP-8 cells; test: Cell proliferation (alamarBlue), MOLP-8; type: cell-based; details: Homo sapiens, multiple myeloma cell line, 120 hours incubation
Description: as §1
as §2, with “values).” for “values). For the data analysis, the CI values were subtracted from the CO values and the results were compared between cells which had been treated with various dilutions of the substance or only with buffer solution.”
as §3, §4

IC50 [1] | IC50 [2] | IC50 [4] | IC50 [5] | SMILES | IC50 [3] | IC50 [6]
790 nM | 880 nM | 1170 nM |  | Cc1nnc2n1-c1ccc(OC(F)(F)F)cc1C(c1ccc(Cl)cc1)=CC2CC(=O)OC(C)(C)C (stereo in doubt) [Example 50, tert-butyl (−)-[(4R)-6-(4-chlorophenyl)-1-methyl-8-(trifluoromethoxy)-4H-[1,2,4]triazolo[4,3-a][1]benzazepin-4-yl]acetate] |  | 1050 nM
190 nM | 310 nM | 420 nM |  | CCNC(=O)C[C@@H]1C=C(c2ccc(Cl)cc2)c2cc(OC(F)(F)F)ccc2-n2c(C)nnc21 [Example 52, 2-[(4R)-6-(4-chlorophenyl)-1-methyl-8-(trifluoromethoxy)-4H-[1,2,4]triazolo[4,3-a][1]benzazepin-4-yl]-N-ethylacetamide] |  | 260 nM
80 nM | 150 nM | 220 nM |  | Cc1nnc2n1-c1ccc(OC(F)(F)F)cc1C(c1ccc(Cl)cc1)=C[C@H]2CC(=O)NCCN1CCOCC1 [Example 53, 2-[(4R)-6-(4-chlorophenyl)-1-methyl-8-(trifluoromethoxy)-4H-[1,2,4]triazolo[4,3-a][1]benzazepin-4-yl]-N-[2-(morpholin-4-yl)ethyl]acetamide] |  | 110 nM
90 nM | 180 nM | 270 nM |  | Cc1nnc(C[C@@H]2C=C(c3ccc(Cl)cc3)c3cc(OC(F)(F)F)ccc3-n3c(C)nnc32)o1 [Example 55, (4R)-6-(4-chlorophenyl)-1-methyl-4-[(5-methyl-1,3,4-oxadiazol-2-yl)methyl]-8-(trifluoromethoxy)-4H-[1,2,4]triazolo[4,3-a][1]benzazepine] |  | 170 nM
180 nM | 150 nM | 220 nM |  | Cc1nnc2n1-c1ccc(OC(F)(F)F)cc1C(c1ccc(Cl)cc1)=C[C@H]2CC(=O)N1CCN2C(=O)CCC2C1 (stereo partly drawn) [Example 56, 2-{[(4R)-6-(4-chlorophenyl)-1-methyl-8-(trifluoromethoxy)-4H-[1,2,4]triazolo[4,3-a][1]benzazepin-4-yl]acetyl}hexahydropyrrolo[1,2-a]pyrazin-6(2H)-one] |  | 120 nM

The remaining lines, values behind:

SMILES | IC50 [1] | IC50 [2] | IC50 [4] | IC50 [5] | IC50 [3] | IC50 [6]
Cc1nnc2n1-c1ccccc1C(c1ccc(Cl)cc1)=C[C@H]2CC(=O)N1CC2CCC(C1)O2 (single isomer, unassigned; (-)) [Example 33] | 450 nM | 330 nM | 400 nM | 1290 nM | 150 nM | 
CCNC(=O)CC1C=C(c2ccc(Cl)cc2)c2ccccc2-n2c(C)nnc21 (stereo in doubt) [Example 13, (−)-2-[(4R)-6-(4-chlorophenyl)-1-methyl-4H-[1,2,4]triazolo[4,3-a][1]benzazepin-4-yl]-N-ethylacetamide] | 30 nM | 310 nM | 150 nM | 320 nM | 60 nM | 
Cc1nnc2n1-c1ccccc1C(c1ccc(Cl)cc1)=CC2CC(=O)N1CCOCC1 (stereo in doubt) [Example 15, (−)-2-[(4R)-6-(4-chlorophenyl)-1-methyl-4H-[1,2,4]triazolo[4,3-a][1]benzazepin-4-yl]-1-(morpholin-4-yl)ethanone] | 40 nM | 230 nM | 130 nM | 350 nM | 60 nM | 
Cc1nnc2n1-c1ccccc1C(c1ccc(Cl)cc1)=CC2CC(=O)N1CC(F)C1 (stereo in doubt) [Example 17, (−)-2-[(4R)-6-(4-chlorophenyl)-1-methyl-4H-[1,2,4]triazolo[4,3-a][1]benzazepin-4-yl]-1-(3-fluoroazetidin-1-yl)ethanone] | 90 nM | 340 nM | 280 nM | 570 nM | 140 nM | 
Cc1nnc2n1-c1ccccc1C(c1ccc(Cl)cc1)=CC2CC(=O)Nc1ccc2c(c1)CC(=O)N2 (stereo in doubt) [Example 21, (−)-2-[(4R)-6-(4-chlorophenyl)-1-methyl-4H-[1,2,4]triazolo[4,3-a][1]benzazepin-4-yl]-N-(2-oxo-2,3-dihydro-1H-indol-5-yl)acetamide] | 80 nM | 170 nM | 190 nM | 480 nM | 80 nM | 
Cc1nnc2n1-c1ccccc1C(c1ccc(Cl)cc1)=CC2Cc1nc(C(C)C)no1 (stereo in doubt) [Example 36, (−)-(4R)-6-(4-chlorophenyl)-1-methyl-4-{[3-(propan-2-yl)-1,2,4-oxadiazol-5-yl]methyl}-4H-[1,2,4]triazolo[4,3-a][1]benzazepine] | 90 nM | 400 nM | 240 nM | 410 nM | 160 nM | 
Cc1nnc(CC2C=C(c3ccc(Cl)cc3)c3ccccc3-n3c(C)nnc32)s1 (stereo in doubt) [Example 42, (+)-(4R)-6-(4-chlorophenyl)-1-methyl-4-[(5-methyl-1,3,4-thiadiazol-2-yl)methyl]-4H-[1,2,4]triazolo[4,3-a][1]benzazepine] | 50 nM | 170 nM | 140 nM |  |  | 110 nM
Cc1nnc2n1-c1ccccc1C(c1ccc(Cl)cc1)=CC2CC(=O)OC(C)(C)C (centres unmarked) [Example 8, tert-butyl [6-(4-chlorophenyl)-1-methyl-4H-[1,2,4]triazolo[4,3-a][1]benzazepin-4-yl]acetate] |  | 3910 nM | 1000 nM |  | 820 nM | 4800 nM
Cc1nnc2n1-c1ccccc1C(c1cccc(Cl)c1)=CC2CC(=O)N1CC2(COC2)C1 (centres unmarked) [Example 10, 2-[6-(3-chlorophenyl)-1-methyl-4H-[1,2,4]triazolo[4,3-a][1]benzazepin-4-yl]-1-(2-oxa-6-azaspiro[3.3]hept-6-yl)ethanone] | 730 nM | 2630 nM | 3030 nM |  | 1610 nM | 1290 nM
Cc1nnc2n1-c1ccccc1C(c1ccc(Cl)cc1)=CC2CC(=O)N1CC2(CCS2(=O)=O)C1 (centres unmarked) [Example 18, 2-[6-(4-chlorophenyl)-1-methyl-4H-[1,2,4]triazolo[4,3-a][1]benzazepin-4-yl]-1-(1,1-dioxido-1-thia-6-azaspiro[3.3]hept-6-yl)ethanone] |  | 330 nM | 360 nM | 800 nM |  | 
Cc1nnc(CC2C=C(c3ccc(Cl)cc3)c3cc(OC(F)(F)F)ccc3-n3c(C)nnc32)o1 (centres unmarked) [Example 54, 6-(4-chlorophenyl)-1-methyl-4-[(5-methyl-1,3,4-oxadiazol-2-yl)methyl]-8-(trifluoromethoxy)-4H-[1,2,4]triazolo[4,3-a][1]benzazepine] | 130 nM | 300 nM | 500 nM |  |  | 360 nM
Cc1nnc2n1-c1ccccc1C(c1ccc(Cl)cc1)=C[C@H]2Cc1nnc(COCc2ccccc2)o1 [Example 57, (4R)-4-({5-[(benzyloxy)methyl]-1,3,4-oxadiazol-2-yl}methyl)-6-(4-chlorophenyl)-1-methyl-4H-[1,2,4]triazolo[4,3-a][1]benzazepine] | 270 nM | 410 nM | 570 nM |  |  | 420 nM
